Source: patent publication US20080145432A1, “Fine Particle and Pharmaceutical Preparation” (priority 2005, published 2008)

Test system: BALB/c mice
Test: Drug effect durability: serum glucose concentration after hypodermic injection
Type: in vivo
Conditions: 10 hours after administration under the dorsal skin, 15 μg insulin, fasted mice
Description: A particulate preparation enclosing 15 μg (WAKO) of insulin prepared in a method of example 9 was dispersed in 100 μL of normal saline (Otsuka), and was administered to 7-week-old male BALB/c mice (weighing 19 to 24 g) after fasting for 12 hours, under the dorsal skin by using 29 G injection needle (Terumo) (in the control group, 100 μL of normal saline (Otsuka) dissolving 15 μg of insulin was used). After administration, animals were kept fasted in individual cages, and blood samples collected from the caudal artery before and after administration were tested by biochemical automatic analyzer (Fuji Drychem 3500V of Fuji Film), by using measuring slide (GLU-WIII of Fuji Film), and changes of glucose concentration were measured at time intervals, and the average of serum glucose concentration changes of two animals each was calculated.

insulin
serum glucose concentration relative to level before administration: 80%
